# In US10845369B2, “Sampling devices and methods of use” (3M INNOVATIVE PROPERTIES COMPANY, priority 2008, dated 2020):
# Experiments:
# [1] = Moisture retention by premoistened swab devices during extended storage; format: physicochemical
# Description: Rapid Cleanliness Test swab sampling devices, sold under the trade name CLEAN-TRACE, were obtained from 3M Health Care (Bridgend, UK). Sterile Dacron swabs were obtained from Puritan Medical Products Company (Guilford, Me.). Foil pouches (160 mm (w)×270 mm (1) heat-sealable PET/foil/LDPE laminate pouches) were obtained from Westfield Medical Ltd. (Bath, UK). The analytical balance (model GR-300) was obtained from A&D Mercury Pty., (Thebarton, South Australia)
# The swabs were removed from the CLEAN-TRACE devices and replaced with dry, sterile Dacron swabs. Half of the replacement swabs were dipped in solution I (see Table 1) for 20 seconds, tapped on the edge of a sterilin container 5 times (to remove excess swabbing solution), and the swabs were weighed before each CLEAN-TRACE tube was reassembled with a moistened swab. The remaining replacement swabs were similarly moistened with solution II (Table 1), weighed, and reassembled in the tubes.
# The initial weight (T0) of each moistened swab was recorded. The reassembled tubes were placed into individual plastic pouches, which were heat-sealed. Care was taken to minimize the amount of air sealed in each pouch. The pouches were divided into two groups. One group was placed into a refrigerator which was held at a temperature of 4±3 degrees Celsius. The other group was placed into a chamber which was held at 25±1 degree Celsius. Sets of ten replicate tubes were removed from each chamber at each specified time point, the tubes were removed from the pouch and weighed, and the weights were recorded.
# (§1) Swabs were prepared as described in Example 1. The swabs were tested for moisture retention as described in Example 1, for compatibility with luciferase enzyme as described in Example 3, and for perdurable detectable residue as described in Example 4. In these experiments, the swab effectiveness parameter was not recorded. All concentrations are listed as percent weight/volume. Solution I-moistened swabs were used as controls for all comparisons. Inhibition of luciferase activity was scored as significant when the measurement from the test swab was <90% of the activity observed with the control swabs. The inhibition was scored as very significant when the measurement from the test swab was <50% of the activity observed with the control swabs.
# [2] = tested on: luciferase enzyme; assay: ATP detection activity test in CLEAN-TRACE devices (compatibility with luciferase enzyme); format: biochemical
# Description: The swabs were removed from the CLEAN-TRACE devices and replaced with dry, sterile Dacron swabs. One-third of the replacement swabs were dipped in solution I (see Table 1) for 20 seconds, tapped on the edge of a sterilin container 5 times (to remove excess swabbing solution), and the CLEAN-TRACE tube was reassembled with the moistened swab. One-third of the remaining replacement swabs were similarly moistened with solution II (Table 1) containing 2% (w/v) 1,2-propanediol and reassembled in the tubes. The remaining one-third were similarly moistened with solution II (Table 1) containing 5% (w/v) 1,2-propanediol and reassembled in the tubes. The reassembled devices were sealed in pouches containing 10 devices per pouch and stored at 4 degrees Celsius for 24 hours.
# An ATP stock solution was prepared by reconstituting freeze-dried ATP with 500 microliters of autoclaved R.O. water to a working strength of […]. A 10-microliter aliquot of the ATP working solution was pipetted onto the middle of the bud of the test devices prepared for this Example (see above).
# Individual devices were activated by plunging the handle of the swab into the test devices, thereby breaking the barrier and exposing the swab bud to the reagent solution containing luciferin. The tubes were then shaken for 20 seconds at speed 7 on the wrist action shaker (Stuart Scientific, Staffordshire, England) and the device was read device in a UNI-LITE luminometer (3M Healthcare, Bridgend, U.K.). Twenty replicate swabs were tested at each time point for each swab solution. Background readings (negative controls) were run at each time point by activating devices, containing one of the Solutions (I, IIa, or IIb), which was not spiked with the ATP solution. Ten devices were used for each negative control condition at each time point.
# as §1
# [3] = 1% w/v in Solution II, vs Solution I control
# [4] = 5% w/v in Solution II, vs Solution I control
# [5] = 5% w/v, vs Solution I control swabs
compound,measurement,setting,value
"CC(O)CO (centres unmarked) [Propylene glycol (1,2-propanediol), 1,2-propanediol]",Moisture retention,[1]; [3],No significant improvement
same,Moisture retention,"[1]; ≥5% (5, 6, 8% tested)",Significant improvement ≥5%
same,Moisture retention,"[1]; ≥5% (10. 20, 25, 50% tested)",Significant improvement ≥5%
same,Compatibility with luciferase enzyme,"[2]; 1, 2, 3, 4% tested",No inhibition
same,Compatibility with luciferase enzyme,"[2]; 5, 6, 8% tested",No inhibition
OCC(O)CO [Glycerol],Moisture retention,"[1]; 1, 5% tested",Comparable to sorbitol and propylene glycol
same,Moisture retention,"[1]; 10, 20, 50% tested",Comparable to sorbitol and propylene glycol
same,Compatibility with luciferase enzyme,"[2]; up to 5% (1, 5% tested)",No inhibition up to 5%
OC[C@@H](O)[C@@H](O)[C@H](O)[C@@H](O)CO [Sorbitol],Moisture retention,[1]; [3],No significant improvement with 1%.
same,Moisture retention,[1]; [4],Slight improvement with 5%.
same,Moisture retention,"[1]; ≥10% (10, 20, 30, 40, 50, 100% tested)",Significant improvement with ≥10%
same,Compatibility with luciferase enzyme,"[2]; 1% w/v, vs Solution I control swabs",No inhibition
same,Compatibility with luciferase enzyme,[2]; [5],No inhibition
CC(O)C(=O)[O-].[Na+] (centres unmarked) [Sodium lactate],Moisture retention,[1]; 5 or 10% soln.,No significant improvement with 5 or 10%
same,Compatibility with luciferase enzyme,[2]; [5],Significant inhibition
"CC(=O)NCCO [Incromectant (N-Acetylethanolamine), N-Acetylethanolamine]",Moisture retention,[1]; [4],5% solution was comparable to PG
same,Compatibility with luciferase enzyme,[2]; [5],Some inhibition at 5%
